{"source": "patent EP0906100B1", "about": "“USE OF 5-HT 1A? RECEPTOR ANTAGONISTS FOR THE TREATMENT OF URINARY INCONTINENCE” (RECORDATI S.A., priority 1996, dated 1997)", "tested_on": "post-synaptic 5-HT1A receptor", "assay": "Inhibition of forepaw treading induced by 8-OH-DPAT in rats", "format": "in vivo", "conditions": "i.p., forepaw treading induced by 1 mg/kg s.c. 8-OH-DPAT", "description": "Inhibition of forepaw treading induced by 8-OH-DPAT in rats:\nMale Sprague-Dawley rats (150-175 g) obtained from Charles River (Italy), were housed in a climate-controlled room and maintained on a 12 h light/dark cycle with free access to food and water. On the day of experiment, rats were placed singly in clear plastic boxes. Reserpinised rats were treated with reserpine, 1 mg/kg s.c., 18-24 h before the test.\nThe appearance of the forepaw treading symptom induced by post-synaptic stimulation of the 5HT1A receptors was noted, and its intensity was scored using a ranked intensity scale in which: 0 = absent, 1 = equivocal, 2 = present and 3 = intense. Behavioural scores for each treated rat were accumulated over the time course (5 observation periods) and expressed as mean values of 8-10 rats.", "data": [{"smiles": "COc1ccccc1N1CCN(CCCCN2C(=O)c3ccccc3C2=O)CC1", "note": "[NAN-190, 1-(2-methoxyphenyl)-4-[4-(2-phthalimido)-butyl]-piperazine]", "values": [{"measurement": "NORMAL RATS ID50", "setting": "normal rats", "result": "700 (500-1000) µg/Kg"}, {"measurement": "RESERPINIZED RATS ID50", "setting": "reserpinized rats", "result": "2000 (1600-2400) µg/Kg"}]}]}
